Patent US7186701B2, “Dehydrating agent and method for dehydrating moist article using the agent and dehydrated article obtained by the method” (Kabushiki Kaisha Hayashibara Seibutsu Kagaku Kenkyujo, priority 2001, dated 2007)

Columns and labels:
[1] = Saturation concentration of cyclotetrasaccharide in water; type: physicochemical
From the text: The resulting each saturated solution of cyclotetrasaccharide was membrane filtered to remove undissolved cyclotetrasaccharide, and each filtrate was then examined for moisture content by the drying loss method to determine a saturation concentration of cyclotetrasaccharide at respective temperatures.

[2] = system: Small intestinal mucosal enzyme
mice = test: Acute toxicity test, oral; type: in vivo; conditions: oral administration to mice
From the text: Based on this, the LD50 of cyclotetrasaccharide was at least 50 g/kg mouse body weight, though the value was […].

[3] = Amino carbonyl reaction with polypeptone; type: physicochemical; conditions: 10% (w/v) with 5% (w/v) polypeptone, 100° C., minus control
Method: Four milliliter aliquots of the resulting solution were placed in glass test tubes, sealed, and heated at 100° C. for 30 to 90 min. After allowing to stand for cooling at ambient temperature, each of the resulting solution was measured for coloration degree to examine their amino carbonyl reactivity. In parallel, as a control, a solution with only polypeptone was provided and treated similarly as above. The coloration degree was evaluated based on the level of the absorbance, which had been measured in a cell with 1-cm light pass at a wavelength of 480 nm, minused that of the control.

[4] = system: Lactobacillus acidophilus JCM 1132; test: Assimilation test; type: cell-based; conditions: 0.5% saccharide in PYF medium, 37° C., four days, anaerobic
[5] = system: Eubacterium aerofaciens ATCC 25986; test: Assimilation test; type: cell-based; conditions: 0.5% saccharide in PYF medium, 37° C., four days, anaerobic

Q: With `OCC1OC2OCC3O[C@H](O[C@H]4C(O)C(CO)OC(OCC5O[C@H](O[C@@H](C1O)C2O)C(O)C(O)[C@@H]5O)C4O)C(O)C(O)[C@@H]3O` (stereo partly drawn) [cyclotetrasaccharide, cyclo{→6)-α-D-glucopyranosyl-(1→3)-α-D-glucopyranosyl-(1→6)-α-D-glucopyranosyl-(1→3)-α-D-glucopyranosyl-(1→}] as the molecule, how does the “Saturation concentration (%)” value ([1]; 10 ° C.) read?
A: 30.3%

Q: What about the “Saturation concentration (%)” value ([1]; 30 ° C.) of the same molecule?
A: 34.2%

Q: What about the “Saturation concentration (%)” value ([1]; 50 ° C.) of the same molecule?
A: 42.6%

Q: What about the “Saturation concentration (%)” value ([1]; 70 ° C.) of the same molecule?
A: 53.0%

Q: What about the “Saturation concentration (%)” value ([1]; 90 ° C.) of the same molecule?
A: 70.5%

Q: And the “Decomposition percentage (%) by digestive enzyme” value [2]?
A: 0.74%

Q: What about the “digestibility level relative to that of maltitol” value [2] of the same molecule?
A: ⅕

Q: What about the LD50 (mice) of the same molecule?
A: at least 50 g/kg mouse body weight

Q: And the “Coloration degree (A480 nm)” value ([3]; heating time 0 min)?
A: 0.00 A480 nm

Q: And the “Coloration degree (A480 nm)” value ([3]; heating time 30 min)?
A: 0.00 A480 nm

Q: And the “Coloration degree (A480 nm)” value ([3]; heating time 60 min)?
A: 0.00 A480 nm

Q: What about the “Coloration degree (A480 nm)” value ([3]; heating time 90 min) of the same molecule?
A: 0.00 A480 nm

Q: And the Assimilability [4]?
A: − (judged as negative (−) when the post culture had a pH of 6.0 or higher)

Q: And the Assimilability [5]?
A: − (judged as negative (−) when the post culture had a pH of 6.0 or higher)
